Here are results for one compound from ChEMBL document CHEMBL4665685, “Neuroprotective Effects of Triterpenoids from Camellia japonica against Amyloid β-Induced Neuronal Damage” (J Nat Prod, 2020).

Activity calls are given as the source filed them. The calls are words filed in the database; no cut-off is given here.

Data set [1] deals with BV-2. The data set is described as follows: Anti-neuroinflammatory activity in mouse BV-2 cells assessed as reduction in amyloid beta (1 to 42 residues)-induced nitric oxide at 40 uM after 18 hrs. In kind it is functional, cell-based.
The subject of data set [2] is BV-2. The data set is described as follows: Cytotoxicity against mouse BV2 cells assessed as reduction in cell viability at 40 uM after 18 hrs by MTT assay. In kind it is cell-based. As to conditions: bv-2, 18 h.
The target of data set [3] is Beta-secretase 1 (Homo sapiens) (UniProt P56817). Nature of the data set: Inhibition of BACE1 (unknown origin) at 20 uM measured after 60 mins by FRET assay relative to control.
The subject of data set [4] is HT-22. Nature of the data set: Neuroprotective activity against amyloid beta (1 to 42) transfected mouse HT22-ARE cells assessed as reversal of increase in antioxidant response element-luciferase activity at 40 uM after 18 hrs by reporter gene assay. Format: functional, cell-based.
Data set [5] deals with HT-22. Nature of the data set: Neuroprotective activity in mouse HT-22 cells assessed as reduction in amyloid beta (1 to 42 residues)-induced glutamate level at 40 uM after 24 hrs by fluorescence assay (reference value: 3.17). In kind it is functional.
Data set [6] relates to HT-22. The data set is described as follows: Neuroprotective activity against glutamate-induced cell death in mouse HT22 cells assessed as increase in cell viability at 40 uM preincubated for 6 hrs followed by glutamate-challenge and measured after 16 hrs by MTT assay relative to control. Format: functional.
In data set [7] the target is Beta-secretase 1 (Homo sapiens) (UniProt P56817). Nature of the data set: Inhibition of BACE1 (unknown origin) at 10 uM measured after 60 mins by FRET assay.
The subject of data set [8] is HT-22. The data set is described as follows: Neuroprotective activity against amyloid beta (1 to 42) transfected mouse HT-22 cells assessed as protection against amyloid-induced inflammation at 40 uM after 24 hrs by MTT assay. Format: functional, cell-based.
Data set [9] concerns HT-22. Nature of the data set: Neuroprotective activity against in amyloid beta (1 to 42) transfected mouse HT22 cells assessed as reduction in overexpression of the green fluorescent pEGFP-C1 gene at 40 uM after 24 hrs by reporter gene assay. Format: functional, cell-based.
For data set [10], the system named is HT-22. The data set is described as follows: Cytotoxicity against mouse HT-22 cells assessed as reduction in cell viability at 40 uM after 24 hrs by MTT assay. Format: cell-based. As to conditions: ht-22, 24 h.

Chain of Beta-secretase 1 (Homo sapiens) (P56817 whole entry): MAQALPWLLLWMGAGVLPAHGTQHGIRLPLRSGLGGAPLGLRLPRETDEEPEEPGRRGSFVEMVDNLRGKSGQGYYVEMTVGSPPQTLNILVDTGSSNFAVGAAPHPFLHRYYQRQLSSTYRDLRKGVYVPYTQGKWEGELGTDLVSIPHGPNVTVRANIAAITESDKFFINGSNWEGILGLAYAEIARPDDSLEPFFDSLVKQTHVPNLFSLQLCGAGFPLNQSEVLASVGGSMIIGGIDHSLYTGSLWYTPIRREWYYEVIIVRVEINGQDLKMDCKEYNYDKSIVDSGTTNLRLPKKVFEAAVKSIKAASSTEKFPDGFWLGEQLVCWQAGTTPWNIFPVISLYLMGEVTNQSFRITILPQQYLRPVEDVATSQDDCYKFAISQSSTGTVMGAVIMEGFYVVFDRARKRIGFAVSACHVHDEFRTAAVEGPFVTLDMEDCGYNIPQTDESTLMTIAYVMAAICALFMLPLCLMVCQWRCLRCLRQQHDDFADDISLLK

As to `CC1(C)CC[C@]2(O)C(=O)C[C@]3(C)C(=C[C@@H](O)[C@@H]4[C@@]5(C)[C@H](O)CC(=O)C(C)(C)[C@@H]5CC[C@]43C)[C@@H]2C1`, the result in the data set with BV-2 [1], in the data set on HT-22 [4], in the data set with HT-22 [8] and in the data set with HT-22 [9] was Active. Also, the Activity result is given as “Non-Toxic” with BV-2 [2], 78.1% with HT-22 [6] and “Non-Toxic” in the data set with HT-22 [10]. The inhibition in [3] amounted to 51.1%. Further, in the data set on HT-22 [5], the “fold change (FC)” value is recorded as 1.42. Further, in data set [7], the inhibition entry was “Active”.
